# Measured values as given in US7875647B2, “Heteroaryl-pyrazole derivatives as cannabinoid CB1 receptor antagonists” (Green Cross Corporation, priority 2006, dated 2011).
# Target: T1, Cannabinoid-1 receptor (CB1R) (Rattus norvegicus, UniProt P20272)
# T1 construct: The tissue obtained from the brain of SD rats was homogenized; from tissue; host or cells: brain of SD rats (membrane pellet of the homogenate)
# Experiment: Cannabinoid-1 receptor (CB1R) binding affinity assay ([3H]CP-55940, rat CB-1 receptor binding protocol)
# Conditions: IC50(nM), brain tissue of SD rats, [3H]CP-55940, 30° C. 60 min
# T1 sequence (P20272 whole entry): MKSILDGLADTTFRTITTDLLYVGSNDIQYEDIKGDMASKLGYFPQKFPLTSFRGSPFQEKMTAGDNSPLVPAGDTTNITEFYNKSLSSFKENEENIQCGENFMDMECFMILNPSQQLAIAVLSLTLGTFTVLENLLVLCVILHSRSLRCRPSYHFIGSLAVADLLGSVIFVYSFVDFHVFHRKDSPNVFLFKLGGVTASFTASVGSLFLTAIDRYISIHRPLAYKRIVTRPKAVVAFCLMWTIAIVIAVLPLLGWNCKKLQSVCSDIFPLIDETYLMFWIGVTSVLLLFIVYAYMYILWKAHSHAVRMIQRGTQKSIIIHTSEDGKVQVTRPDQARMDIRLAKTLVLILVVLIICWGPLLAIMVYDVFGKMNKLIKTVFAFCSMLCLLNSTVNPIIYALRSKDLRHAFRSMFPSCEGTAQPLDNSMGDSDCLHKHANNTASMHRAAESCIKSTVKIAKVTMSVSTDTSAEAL
row,Compound,IC50
1,"CCCCCOC(C)(C)c1nnc(-c2nn(-c3ccc(Cl)cc3Cl)c(-c3ccc(Cl)cc3)c2C)s1 [Example 461, 2-(5-(4-chlorophenyl)-1-(2,4-dichlorophenyl)-4-methyl-1H-pyrazol-3-yl)-5-(2-(pentyloxy)propan-2-yl)-1,3,4-thiadiazole]",13.7 nM

# Same assay, conditions: brain tissue of SD rats, [3H]CP-55940, 30° C. 60 min; read-out: IC50
row,Compound,IC50
1,"COc1ccc(C2(c3nnc(-c4nn(-c5ccc(Cl)cc5Cl)c(-c5ccc(Cl)cc5)c4C)s3)CC2)cc1 [Example 458, 2-(5-(4-chlorophenyl)-1-(2,4-dichlorophenyl)-4-methyl-1H-pyrazol-3-yl)-5-(1-(4-methoxyphenyl)cyclopropyl)-1,3,4-thiadiazole]",25.8 nM
2,"Cc1c(-c2nnc(C3(c4ccc(Cl)cc4Cl)CC3)s2)nn(-c2ccc(Cl)cc2Cl)c1-c1ccc(Cl)cc1 [Example 459, 2-(5-(4-chlorophenyl)-1-(2,4-dichlorophenyl)-4-methyl-1H-pyrazol-3-yl)-5-(1-(2,4-dichlorophenyl)cyclopropyl)-1,3,4-thiadiazole]",10.8 nM
3,"Cc1ccc(C2(c3nnc(-c4nn(-c5ccc(Cl)cc5Cl)c(-c5ccc(Cl)cc5)c4C)s3)CC2)cc1 [Example 460, 2-(5-(4-chlorophenyl)-1-(2,4-dichlorophenyl)-4-methyl-1H-pyrazol-3-yl)-5-(1-p-tolylcyclopropyl)-1,3,4-thiadiazole]",20.1 nM
4,"Cc1c(-c2nnc(C3(C(F)(F)F)CC3)s2)nn(-c2ccc(Cl)cc2Cl)c1-c1ccc(Cl)cc1 [Example 462, 2-(5-(4-chlorophenyl)-1-(2,4-dichlorophenyl)-4-methyl-1H-pyrazol-3-yl)-5-(1-(trifluoromethyl)cyclopropyl)-1,3,4-thiadiazole]",36.5 nM
5,"Cc1c(-c2nnc(C3(C(F)(F)F)CCC3)s2)nn(-c2ccc(Cl)cc2Cl)c1-c1ccc(Cl)cc1 [Example 465, 2-(5-(4-chlorophenyl)-1-(2,4-dichlorophenyl)-4-methyl-1H-pyrazol-3-yl)-5-(1-(trifluoromethyl)cyclobutyl)-1,3,4-thiadiazole]",33.9 nM
6,"Cc1c(-c2nnc(CC(F)(F)F)s2)nn(-c2ccc(Cl)cc2Cl)c1-c1ccc(Cl)cc1 [Example 466, 2-(5-(4-chlorophenyl)-1-(2,4-dichlorophenyl)-4-methyl-1H-pyrazol-3-yl)-5-(2,2,2-trifluoroethyl)-1,3,4-thiadiazole]",102 nM
7,"Cc1c(-c2nnc(C3(C)CC3)s2)nn(-c2ccc(Cl)cc2Cl)c1-c1ccc(Cl)cc1 [Example 469, 2-(5-(4-chlorophenyl)-1-(2,4-dichlorophenyl)-4-methyl-1H-pyrazol-3-yl)-5-(1-methylcyclopropyl)-1,3,4-thiadiazole]",36.3 nM

# Results, then the compound that gave them:
row,IC50,Compound
1,3.95 nM,"CCc1c(-c2nnc(C3(c4ccc(Cl)cc4)CC3)s2)nn(-c2ccc(Cl)cc2Cl)c1-c1ccc(Cl)cc1 [Example 463, 2-(5-(4-chlorophenyl)-1-(2,4-dichlorophenyl)-4-ethyl-1H-pyrazol-3-yl)-5-(1-(4-chlorophenyl)cyclopropyl)-1,3,4-thiadiazole]"
2,4.41 nM,"CCc1c(-c2nnc(C3(c4ccc(Cl)cc4)CC3)s2)nn(-c2ccccc2Cl)c1-c1ccc(Br)cc1 [Example 464, 2-(5-(4-bromophenyl)-1-(2-chlorophenyl)-4-ethyl-1H-pyrazol-3-yl)-5-(1-(4-chlorophenyl)cyclopropyl)-1,3,4-thiadiazole]"
3,5.94 nM,"CCc1c(-c2nnc(C3(Cc4ccccc4)CC3)s2)nn(-c2ccc(Cl)cc2Cl)c1-c1ccc(Br)cc1 [Example 468, 2-(1-benzylcyclopropyl)-5-(5-(4-bromorophenyl)-1-(2,4-dichlorophenyl)-4-ethyl-1H-pyrazol-3-yl)-1,3,4-thiadiazole]"
4,11.8 nM,"CCc1c(-c2nnc(C3(C)CC3)s2)nn(-c2ccc(Cl)cc2Cl)c1-c1ccc(Br)cc1 [Example 470, 2-(5-(4-bromophenyl)-1-(2,4-dichlorophenyl)-4-ethyl-1H-pyrazol-3-yl)-5-(1-methylcyclopropyl)-1,3,4-thiadiazole]"
